# Experiments:
# [1] = target: cloned human P2Y1 receptors (Homo sapiens (Human), UniProt P47900); test: Binding Assay B - Scintillation Proximity Assay (SPA) for P2Y1 binding, [33P] 2MeS-ADP; conditions: SPA, 0.3 nM [33P] 2MeS-ADP, Cheng-Prusoff; read-out: P2Y1 Ki (nM) using binding assay B
# Procedure: Binding Assay B—Scintillation Proximity Assay (SPA) for P2Y1 Binding
# A SPA membrane binding assay was used to identify inhibitors of [^33P] […] Reactions were allowed to proceed to completion at room temperature for 1 hour followed by centrifugation of the plate for 5 min. About 40 μL of the aqueous solution was aspirated. Plates were sealed and the [^33P]
# [2] = tested on: human platelet rich plasma (PRP); test: ADP induced platelet aggregation assay; conditions: Homo sapiens, Platelet, 5 min, read-out: PA IC50 (μM) @ 10 μM ADP, human PRP, 10 μM ADP, AUC at 5 minute
# Sequence of cloned human P2Y1 receptors (P47900 whole entry): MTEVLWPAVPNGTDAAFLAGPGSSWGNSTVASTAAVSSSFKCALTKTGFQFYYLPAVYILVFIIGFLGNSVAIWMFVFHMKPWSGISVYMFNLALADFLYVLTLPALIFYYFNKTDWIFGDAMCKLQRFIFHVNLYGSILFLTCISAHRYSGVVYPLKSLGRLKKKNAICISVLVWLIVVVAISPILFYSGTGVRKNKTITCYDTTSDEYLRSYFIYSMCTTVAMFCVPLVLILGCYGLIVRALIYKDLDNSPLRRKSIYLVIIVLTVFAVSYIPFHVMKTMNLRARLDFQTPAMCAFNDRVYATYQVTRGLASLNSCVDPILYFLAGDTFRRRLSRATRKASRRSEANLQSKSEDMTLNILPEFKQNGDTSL
Structure (SMILES),Ki [1],IC50 [2]
"CC1(C)CN(c2ccccc2NC(=O)Nc2ccc(OC(F)(F)F)cc2)c2c(O)ccc(-c3ccc(Cl)cc3)c21 [Example 205, 1-(2-(4-(4-Chlorophenyl)-7-hydroxy-3,3-dimethylindolin-1-yl)phenyl)-3-(4-(trifluoromethoxy)phenyl)urea]",6.7 nM,0.14 µM
"CC1(C)CN(c2ccccc2NC(=O)Nc2ccc(OC(F)(F)F)cc2)c2c(O)ccc(-c3cccc(F)c3)c21 [Example 206, 1-(2-(4-(3-Fluorophenyl)-7-hydroxy-3,3-dimethylindolin-1-yl)phenyl)-3-(4-(trifluoromethoxy)phenyl)urea]",8.5 nM,0.24 µM
"CC1(C)CN(c2ccccc2NC(=O)Nc2ccc(OC(F)(F)F)cc2)c2c(O)ccc(-c3ccccc3F)c21 [Example 207, 1-(2-(4-(2-Fluorophenyl)-7-hydroxy-3,3-dimethylindolin-1-yl)phenyl)-3-(4-(trifluoromethoxy)phenyl)urea]",8.7 nM,0.08 µM
"CC1(C)CN(c2ccccc2NC(=O)Nc2csc(C(F)(F)F)n2)c2c(O)ccc(-c3ccc(F)cc3)c21 [Example 208, 1-(2-(4-(4-Fluorophenyl)-7-hydroxy-3,3-dimethylindolin-1-yl)phenyl)-3-(2-(trifluoromethyl)thiazol-4-yl)urea]",11.4 nM,0.25 µM
"CC1(C)CN(c2ccccc2NC(=O)Nc2nc3ccc(Cl)nc3s2)c2c(O)ccc(-c3ccc(F)cc3)c21 [Example 209, 1-(5-Chlorothiazolo[5,4-b]pyridin-2-yl)-3-(2-(4-(4-fluorophenyl)-7-hydroxy-3,3-dimethylindolin-1-yl)phenyl)urea]",13 nM,0.23 µM
"CC1(C)CN(c2ccccc2NC(=O)Nc2nc3ccc(F)cc3s2)c2c(O)ccc(-c3ccc(F)cc3)c21 [Example 210, 1-(6-Fluorobenzo[d]thiazol-2-yl)-3-(2-(4-(4-fluorophenyl)-7-hydroxy-3,3-dimethylindolin-1-yl)phenyl)urea]",12.4 nM,0.08 µM
"CC(C)CN1CCC(c2ccc(NC(=O)Nc3ccccc3N3CC(C)(C)c4c(-c5ccc(F)cc5)ccc(O)c43)cc2)CC1 [Example 211, 1-(2-(4-(4-Fluorophenyl)-7-hydroxy-3,3-dimethylindolin-1-yl)phenyl)-3-(4-(1-isobutylpiperidin-4-yl)phenyl)urea]",27.1 nM,0.46 µM
"CC1(C)CN(c2ccccc2NC(=O)Nc2csc(Cl)n2)c2c(O)cc(F)c(-c3ccc(F)cc3)c21 [Example 212, 1-(2-Chlorothiazol-4-yl)-3-(2-(5-fluoro-4-(4-fluorophenyl)-7-hydroxy-3,3-dimethylindolin-1-yl)phenyl)urea]",4.9 nM,0.16 µM
"CC1(C)CN(c2ccccc2NC(=O)Nc2nc3ccc(F)cc3s2)c2c(O)cc(F)c(-c3ccc(F)cc3)c21 [Example 213, 1-(2-(5-Fluoro-4-(4-fluorophenyl)-7-hydroxy-3,3-dimethylindolin-1-yl)phenyl)-3-(6-fluorobenzo[d]thiazol-2-yl)urea]",25.4 nM,0.38 µM
"CC1(C)CN(c2ccccc2NC(=O)Nc2ccc(OC(F)(F)F)cc2)c2c(O)cc(F)c(-c3ccc(Cl)cc3)c21 [Example 214, 1-(2-(4-(4-Chlorophenyl)-5-fluoro-7-hydroxy-3,3-dimethylindolin-1-yl)phenyl)-3-(4-(trifluoromethoxy)phenyl)urea]",13.7 nM,0.21 µM
"CC1(C)CN(c2ccccc2NC(=O)Nc2csc(Cl)n2)c2c(O)cc(F)c(-c3ccc(Cl)cc3)c21 [Example 215, 1-(2-(4-(4-Chlorophenyl)-5-fluoro-7-hydroxy-3,3-dimethylindolin-1-yl)phenyl)-3-(2-chlorothiazol-4-yl)urea]",15 nM,0.14 µM
"CC1(C)CN(c2ccccc2NC(=O)Nc2ccc(OC(F)(F)F)cc2)c2c(O)cc(F)c(-c3ccc(C(F)(F)F)cc3)c21 [Example 216, 1-(2-(5-Fluoro-7-hydroxy-3,3-dimethyl-4-(4-(trifluoromethyl)phenyl)indolin-1-yl)phenyl)-3-(4-(trifluoromethoxy)phenyl)urea]",54.7 nM,0.14 µM
"CC1(C)CN(c2ccccc2NC(=O)Nc2nc3ccc(F)cc3s2)c2c(O)cc(F)c(-c3ccc(Cl)cc3)c21 [Example 224, 1-(2-(4-(4-Chlorophenyl)-5-fluoro-7-hydroxy-3,3-dimethylindolin-1-yl)phenyl)-3-(6-fluorobenzo[d]thiazol-2-yl)urea]",26.1 nM,0.34 µM
"CC1(C)CN(c2ccccc2NC(=O)Nc2nc3ccc(Cl)cc3s2)c2c(O)cc(F)c(-c3ccc(Cl)cc3)c21 [Example 225, 1-(6-Chlorobenzo[d]thiazol-2-yl)-3-(2-(4-(4-chlorophenyl)-5-fluoro-7-hydroxy-3,3-dimethylindolin-1-yl)phenyl)urea]",34.7 nM,0.36 µM
"CC1(C)CN(c2ccccc2NC(=O)Nc2nc3ccc(Cl)nc3s2)c2c(O)cc(F)c(-c3ccc(Cl)cc3)c21 [Example 226, 1-(2-(4-(4-Chlorophenyl)-5-fluoro-7-hydroxy-3,3-dimethylindolin-1-yl)phenyl)-3-(5-chlorothiazolo[5,4-b]pyridin-2-yl)urea]",26.6 nM,0.46 µM
"CC1(C)CN(c2ccccc2NC(=O)Nc2nc3ccc(F)nc3s2)c2c(O)cc(F)c(-c3ccc(Cl)cc3)c21 [Example 227, 1-(2-(4-(4-Chlorophenyl)-5-fluoro-7-hydroxy-3,3-dimethylindolin-1-yl)phenyl)-3-(5-fluorothiazolo[5,4-b]pyridin-2-yl)urea]",21.6 nM,0.56 µM
"CC1(C)CN(c2ccccc2NC(=O)Nc2csc(C(F)(F)F)n2)c2c(O)cc(F)c(-c3ccc(F)cc3)c21 [Example 228, 1-(2-(5-Fluoro-4-(4-fluorophenyl)-7-hydroxy-3,3-dimethylindolin-1-yl)phenyl)-3-(2-(trifluoromethyl)thiazol-4-yl)urea]",13.6 nM,0.3 µM
"CC1(C)CN(c2ccccc2NC(=O)Nc2ccc(OC(F)(F)F)cc2)c2c(O)c(F)cc(-c3ccc(C(F)(F)F)cc3)c21 [Example 229, 1-(2-(6-Fluoro-7-hydroxy-3,3-dimethyl-4-(4-(trifluoromethyl)phenyl)indolin-1-yl)phenyl)-3-(4-(trifluoromethoxy)phenyl)urea]",15.3 nM,0.22 µM
"CC1(C)CN(c2ccccc2NC(=O)Nc2ccc(OC(F)(F)F)cc2)c2c(O)c(F)cc(-c3ccccc3)c21 [Example 230, 1-(2-(6-Fluoro-7-hydroxy-3,3-dimethyl-4-phenylindolin-1-yl)phenyl)-3-(4-(trifluoromethoxy)phenyl)urea]",16.3 nM,0.3 µM
"CC1(C)CN(c2ccccc2NC(=O)Nc2ccc(OC(F)(F)F)cc2)c2c(O)c(F)cc(-c3ccc(Cl)cc3)c21 [Example 231, 1-(2-(4-(4-Chlorophenyl)-6-fluoro-7-hydroxy-3,3-dimethylindolin-1-yl)phenyl)-3-(4-(trifluoromethoxy)phenyl)urea]",15.2 nM,0.3 µM
"CC1(C)CN(c2ccccc2NC(=O)Nc2ccc(OC(F)(F)F)cc2)c2c(O)c(F)cc(-c3ccc(F)cc3)c21 [Example 232, 1-(2-(6-Fluoro-4-(4-fluorophenyl)-7-hydroxy-3,3-dimethylindolin-1-yl)phenyl)-3-(4-(trifluoromethoxy)phenyl)urea]",14.7 nM,0.39 µM

# From patent US9540323B2 (BRISTOL-MYERS SQUIBB COMPANY, priority 2012, dated 2017)
